Series [1] can be described thus: Chrome azurol S (CAS) agar plate siderophore zone test for Fe-binding. Particulars: 200 μL of 0.2 mM compound solution in Oxford cup, let stand for 3 h. Here is the method: Chrome azurol S (CAS) agar plate, namely the siderophore screening medium consisting of 1 mL of 20% glucose solution, 3 mL of 10% casein, 100 μL of 1 mmoL/L CaCl2), 2 mL of 1 mmoL/L MgSO4, 100 mL of H2O, and 1.8 g of agar, was heated, and supplemented with 5 mL each of CAS dye solution and phosphate buffered saline (PBS) at 60° C. slowly to obtain a CAS-blue agar medium.
CAS dye solution included: 1 mmol/L CAS, 4 mmol/L hexadecyl trimethyl ammonium bromide, and 0.1 mmol/L FeCl3.
PBS (pH 6.8) included: 2.427 g of Na2HPO4.12H2O, 0.5905 g of NaH2PO4.2H2O, 0.075 g of KH2PO4, 0.250 g of NH4Cl, 0.125 g of NaCl, and 100 mL of H2O. All the above solutions were prepared with deionized water. […]
The Fe-binding ability of xerucitrinin A was detected by using the CAS agar plate. […] The growth of Foc TR4 is inhibited by binding Fe.

For series [2], the system named is spores of Foc TR4. The experiment in a line: Effect on spore morphology of Foc TR4 in Gauze's Medium #1, observed under a scanning electron microscope. The format is cell-based, Fusarium oxysporum f. sp. cubense tropical race 4. Here is the method:
XcA (the compound xerucitrinin A) at a final concentration of 3 mM was added to Gauze's Medium #1, and the filtered spore suspension of Foc was added, with a final spore concentration of 1×10^7 spores/mL. The control treatment was implemented by treating with the same volume of sterile water. The spore suspension was cultured at 28° C. in the dark for 24 h. The spores of Foc were collected and fixed in a 2.5% (v/v) glutaraldehyde solution at 4° C. overnight. The fixed spores were rinsed twice with 0.1 mol/L PBS (pH 7.4), dehydrated gradiently with 30%, 50%, 70%, 80%, 90%, 95%, and 100% ethanol solutions for 20 min, dried and subjected to gold spraying. The spore morphology of Foc TR4 was observed under a scanning electron microscope.

The subject of series [3] is Brazilian banana seedlings. The experiment in a line: Effect on the growth of Brazilian banana seedlings in treated Gauze's Medium #1. Particulars: 3 mM in Gauze's Medium #1; 6 Brazilian banana seedlings per treatment. The class given is in vivo. As to the method:
XcA was dissolved in ethanol. In order to investigate the effect of XcA on the growth of Brazilian banana, 3 mM XcA was added to Gauze's Medium #1. A volume of ethanol (CK) equal to the compound concentration was added to the control. A negative control was set up, and 200 μM 8-hydroxyquinoline (8HQ) was added to the Gauze's Medium #1. Then Brazilian banana seedlings were planted in a culture plate containing the above-mentioned treated medium. Each treatment had 6 replicates (6 Brazilian banana seedlings). The culture plate containing Brazilian banana seedlings was placed in a growth chamber to grow for 10 days to observe the effect on plant growth. Each treatment continued to grow for two months, during which an equal volume of sterile water was supplemented, and the plant height, root weight and seedling weight of each treatment were determined.

Take `Cc1c(O)c(C)c2c(c1O)CO[C@]1(C[C@H]3O[C@H](C)[C@@H](C)c4c(C)c(O)c(O)c(c43)O1)[C@H]2C` [xerucitrinin A]: the “Fe-binding ability (siderophore zone around the Oxford cup)” value in series [1] is reported as “a siderophore zone appeared around the Oxford cup”. For the same compound, the “spore morphology of Foc” value in series [2] is given as “obvious crenation on the surface of the spores”. The “germination and growth of the spores of Foc” value in series [2] (3 mM in Gauze's Medium #1, 28° C. in the dark for 24 h) is “affect the germination and growth of the spores of Foc”. The “effect on the growth of banana seedlings compared with the control” value in series [3] is on record as “no adverse effect on the growth of banana seedlings”.

The values above are taken from patent US11825844B2, “Method for controlling Fusarium oxysporum f. sp. cubense tropical race 4” (GUANGXI UNIVERSITY, priority 2021, dated 2023).
